Reference: patent publication US20210386756A1, “IMPROVEMENTS FOR PERFORMING AND FACILITATING THE RECOVERY AFTER HEMATOPOIETIC STEM CELL TRANSPLANTATION” (Centro de Investigaciones Energéticas, Medioambientales y …, priority 2018, published 2021)

Columns and labels:
human cord blood CD34+ = assay: Human engraftment in female NSG mice transplanted with a limited CD34+ cell dose (5×10^3); assay type: in vivo, mouse; conditions: low dose 5×10^3 hCD34+, mean +/− SEM
Description: FIG. 7A indicates human hematopoietic reconstitution after four months. […] However, in spite of this presence of endogenous estrogens, the human engraftment in female recipients was increased after E2 and more importantly after E4 treatment. FIG. 7B relates the presence of primitive hematopoietic progenitors was higher in the female mice treated with estrogens, which indicated the quality of the reconstitution. (Kruskal-Wallis test; P<0.05, 4 mice per group). […] Three-four months later, the animals were sacrificed and the human hematopoietic engraftment was analyzed by FACS. Human hematopoietic population was identified as the cells positive for hCD45-APC-Cy7 (Biolegend) and negative for mouse CD45.1-PE (Biolegend). To assess whether estrogen can improve hematopoietic reconstitution in female recipients, female NSG were irradiated and transplanted by a low doses of human cord blood CD34^+ (5×10^3 hCD34^+). The human engraftment was analyzed as described in Example 1. […] However, in spite of this presence of endogenous estrogens, the human engraftment in female recipients was increased after E2 and more importantly after E4 treatment.

[1] = relative to other estrogens; cited from earlier work
[2] = tested on: hCD34+ hematopoietic progenitors; assay: In vitro toxicity of natural estrogens for hematopoietic progenitors (hCD34+ culture, FACS subsets); assay type: cell-based, human; conditions: for % CD34+/CD38− / % HSC / % MLP / % MPP: four days culture
Procedure: FIG. 9 relates the effect of different concentration of E1, E2, E3 and E4 in human hematopoietic progenitors. Human hematopoietic progenitors were culture in phenol red free media supplemented with 100 ng/mL SCF, 100 ng/ml FLT3L and 100 ng/ml TPO and different concentration of E1, E2, E3 and E4 (from 10 nM to 500 μM). FIG. 9A represents the fold increase of the number of hematopoietic cells after four days in culture. FIG. 9B indicates the total number of primitive hematopoietic progenitors (CD34^+/CD38^−) present in the culture, extrapolated from number of cells and the frequency of this population analyzed by FACS. […] Grey dashed lines point the value of control group, and red dashed lines indicate the initial values at day 0. (Kruskal-Wallis test; P<0.05, data from four independent experiments).
To assess the toxicity of the natural estrogens (E1, E2, E3 and E4) for hematopoietic progenitors, in vitro studies were performed. 5×10^4 hCD34^+ were cultured in a phenol red-free media, X-Vivo 20 (Lonza), in presence of 100 ng/ml SCF, 100 ng/ml FLT3L, 100 ng/ml TPO, 0.5% PS, 1% Glutamax (Thermofisher) and different concentrations of E1, E2, E3 or E4 (from 10 nM to 500 μM). Cell proliferation and immunophenotype of different hematopoietic subsets (CD34^+/CD38^−, HSC [CD34^+/CD38^−/CD45RA^−/CD90^+], Multipotent Progenitors [MPP, CD34^+/CD38^−/CD45RA^−/CD90^−], Multipotent Lymphoid Progenitors [MLP, CD34^+/CD38^−/CD45RA^+] were evaluated at day 0 and four days after culture.

[3] = tested on: mouse MSCs (mCD140a+) and vascular endothelial cells (mCD144+); assay: Mouse BM niche analysis (MSCs and vascular endothelial cells) after transplant and estrogen treatment; assay type: in vivo; conditions: four months after transplant, versus vehicle-treated animals
Procedure: FIG. 12 refers to modulation of the hematopoietic niche by estrogens. […] FIG. 12B refers to the relative mouse vascular endothelial cells (mCD144+ or VE-Cadherin+) in the BM of the male mice transplanted with 5×10^4 hCB-CD34+ cells analyzed 4 months after transplantation. […] Data are presented by dots and box-plots that represent the interquartile range (p75, upper edge; p25, lower edge; p50, midline; p95, line above the box; and p5, line below the box). Significance was analyzed by Mann-Whitney U test and represented by **P<0.01.
To provide a further insight into the positive impact of estrogens on promoting human hematopoietic engraftment, we examined mesenchymal and vascular endotelial compartments of the mouse BM niche four months after being transplanted and treated with E2 (estradiol) or E4 (estetrol). The percentage of mouse MSCs (mCD140a+, also called Pdgfra+) and vascular endothelial cells (mCD144+, also called VE-Cadherin+) was analyzed in the non-hematopoietic compartment ([…]).

C[C@]12CC[C@@H]3c4ccc(O)cc4CC[C@H]3[C@@H]1[C@@H](O)[C@@H](O)[C@@H]2O [E4, estetrol]
Percentage of hematopoietic stem cells (hCD34+/hCD38−) in the human hematopoietic population (human cord blood CD34+): 0.39 +/− 0.08 (n = 3) % | Percentage of human hematopoietic reconstitution (human cord blood CD34+): 40.80 +/− 4.58 (n = 3) % | in vivo half-life [1]: considerably longer than that of other estrogens | toxicity for hematopoietic progenitor subpopulations ([2]; 10 nM to 500 μM, in vitro): less toxic | % CD34+/CD38− ([2]; 10 nM): 13.35 ± 0.87% | % HSC ([2]; 10 nM): 1.75 ± 0.13% | % MLP ([2]; 10 nM): 4.29 ± 0.44% | % MPP ([2]; 10 nM): 4.39 ± 0.25% | % CD34+/CD38− ([2]; 100 nM): 12.60 ± 0.68% | % HSC ([2]; 100 nM): 1.67 ± 0.12% | % MLP ([2]; 100 nM): 4.42 ± 0.16% | % MPP ([2]; 100 nM): 4.35 ± 0.56% | % CD34+/CD38− ([2]; 1 μM): 12.08 ± 1.22% | % HSC ([2]; 1 μM): 1.86 ± 0.20% | % MLP ([2]; 1 μM): 3.48 ± 0.73% | % MPP ([2]; 1 μM): 4.89 ± 0.30% | % CD34+/CD38− ([2]; 10 μM): 13.62 ± 0.54% | % HSC ([2]; 10 μM): 2.03 ± 0.04% | % MLP ([2]; 10 μM): 4.30 ± 0.29% | % MPP ([2]; 10 μM): 4.57 ± 0.35% | % CD34+/CD38− ([2]; 100 μM): 17.26 ± 2.24% | % HSC ([2]; 100 μM): 3.67 ± 0.65% | % MLP ([2]; 100 μM): 5.66 ± 1.49% | % MPP ([2]; 100 μM): 3.85 ± 0.32% | % CD34+/CD38− ([2]; 500 μM): 10.82 ± 2.79% | % HSC ([2]; 500 μM): 3.76 ± 1.25% | % MLP ([2]; 500 μM): 0.89 ± 0.18% | % MPP ([2]; 500 μM): 3.11 ± 1.20% | number of mCD140a+ cells (mouse MSCs) in BM [3]: increased
